In ChEMBL document CHEMBL1148013, “Synthesis, biological evaluation and molecular modeling studies of arylidene-thiazolidinediones with potential hypoglycemic and hypolipidemic activities” (2007) one finds Activity data, which are given here for 11 compounds.

Holding throughout (type): functional
Common to all, as to parameters: scale not given: the % may be the effect or the level left

Assay [1] deals with Mus musculus. The experiment in a line: Reduction in plasma glucose level in alloxan-induced diabetic mouse at 30 mg/kg/day, po after 15 days relative to control.
In assay [2] the test system is Mus musculus. The experiment in a line: Reduction in plasma glucose level in alloxan-induced diabetic mouse at 20 mg/kg/day, po after 15 days relative to control.
The test system of assay [3] is Mus musculus. Nature of the assay: Reduction in plasma triglyceride level in alloxan-induced diabetic mouse at 30 mg/kg/day, po after 15 days relative to control.
Assay [4] deals with Mus musculus. Nature of the assay: Reduction in plasma glucose level in alloxan-induced diabetic mouse at 10 mg/kg/day, po after 15 days relative to control.
For assay [5], the system named is Mus musculus. The experiment in a line: Reduction in plasma triglyceride level in alloxan-induced diabetic mouse at 20 mg/kg/day, po after 15 days relative to control.
Assay [6] has as its system Mus musculus. Nature of the assay: Reduction in plasma triglyceride level in alloxan-induced diabetic mouse at 10 mg/kg/day, po after 15 days relative to control.
In assay [7] the test system is Mus musculus. The experiment in a line: Reduction in plasma glucose level in alloxan-induced diabetic mouse at 40 mg/kg/day, po after 15 days relative to control.
The test system of assay [8] is Mus musculus. Nature of the assay: Reduction in plasma glucose level in alloxan-induced diabetic mouse at 5 mg/kg/day, po after 15 days relative to control.
Assay [9] relates to Mus musculus. The experiment in a line: Reduction in plasma triglyceride level in alloxan-induced diabetic mouse at 5 mg/kg/day, po after 15 days relative to control.
Assay [10] has as its system Mus musculus. The experiment in a line: Reduction in plasma triglyceride level in alloxan-induced diabetic mouse at 40 mg/kg/day, po after 15 days relative to control.

For the compound `Cc1ccc(CN2C(=O)S/C(=C\c3ccc(N(C)C)cc3)C2=O)cc1`, the Activity with Mus musculus [1] turned out to be 40.8%; in the assay with Mus musculus [2] it was 35.8%; in the assay with Mus musculus [3], 44.1%; in the assay on Mus musculus [4], 14.9%; with Mus musculus [5], 17.4%.
For `COc1ccc(/C=C2\SC(=O)N(Cc3ccc(C)cc3)C2=O)c(OC)c1`, the Activity stood at 34.6% in the assay with Mus musculus [1]; 46.5% with Mus musculus [3]; 40% in the assay with Mus musculus [6]; 21.8% in the assay with Mus musculus [4]; 20.1% in the assay with Mus musculus [7].
On to `Cc1ccc(CN2C(=O)S/C(=C\c3ccccc3Cl)C2=O)cc1`, for which the Activity in the assay on Mus musculus [1] amounted to 43.3%; in the assay with Mus musculus [2] it was 47%; in the assay with Mus musculus [3] it was 26%; in the assay with Mus musculus [6] it was 14.8%; in the assay with Mus musculus [4] it was 19.2%; with Mus musculus [5], 20%.
As to `COc1ccc(/C=C2\SC(=O)N(Cc3ccc(C)cc3)C2=O)cc1`, the Activity is given as 50.8% in the assay with Mus musculus [1]; 58.8% in the assay with Mus musculus [3]; 27.2% with Mus musculus [8]; 32.2% in the assay with Mus musculus [9]; 37.6% in the assay with Mus musculus [6]; 20.6% with Mus musculus [4].
Regarding `Cc1ccc(CN2C(=O)S/C(=C\c3ccc(O)cc3)C2=O)cc1`, the Activity with Mus musculus [1] is 37.3%; with Mus musculus [4], 19.9%; in the assay on Mus musculus [7] it was 37.2%.
`Cc1ccc(/C=C2\SC(=O)N(Cc3ccc(C)cc3)C2=O)cc1`: the values for the Activity in the assay with Mus musculus [6] and in the assay with Mus musculus [4] were 41.7% and 16.3%, respectively.
As to `Cc1ccc(CN2C(=O)S/C(=C\c3ccc(Cl)cc3)C2=O)cc1`, the Activity was found to be 22.8% in the assay with Mus musculus [1]; 27.1% in the assay on Mus musculus [10]; 48% in the assay with Mus musculus [3]; 18.7% with Mus musculus [4]; 31.5% in the assay with Mus musculus [7].
As for `Cc1ccc(CN2C(=O)S/C(=C\c3ccc(F)cc3)C2=O)cc1`, the Activity in the assay with Mus musculus [1] turned out to be 13.5%.
For the compound `Cc1ccc(CN2C(=O)S/C(=C\c3ccc([N+](=O)[O-])cc3)C2=O)cc1`, the Activity in the assay with Mus musculus [1] turned out to be 11.42%; in the assay with Mus musculus [3], 7.1%.
Consider `Cc1ccc(CN2C(=O)S/C(=C\c3cccc(Br)c3)C2=O)cc1`, for which the Activity was determined as 17.6% in the assay with Mus musculus [6] and 21.3% in the assay with Mus musculus [4].
For the compound `CN(CCOc1ccc(CC2SC(=O)NC2=O)cc1)c1ccccn1` (stereo not drawn) [ROSIGLITAZONE], the Activity came out at 11.6% in the assay on Mus musculus [1]; 6.4% with Mus musculus [3]; 26.3% in the assay on Mus musculus [8]; 15.9% with Mus musculus [9]; 43.3% in the assay on Mus musculus [6]; 36.7% in the assay with Mus musculus [4].
